In US20240059703A1 (AMGEN INC., priority 2021, published 2024):
Like-named read-outs stand apart in the source and are kept apart here.

How the values were obtained:
KRAS G12C = KRAS G12C (Homo sapiens (Human), UniProt P01116, C118A/G12C); experiment: 2 h coupled exchange assay; assay type: biochemical
Procedure: The term “2 h coupled exchange assay” or “20 h coupled exchange assay” as used herein refers to the assay described in the Section entitled “BIOLOGICAL EVALUATION.”

[1] = test system: A549 (human lung carcinoma) cells; experiment: Cell Viability Assay (CellTiter-Glo), A549; assay type: cell-based
In short: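 MIA PaCa-2 or A549 cells in RPMI 1640 with 10% FBS were seeded at 1.67E+04 cells/mL and incubated overnight. Serially diluted compound was then added for 72 h at 37° C, 5% CO2. Viability read by CellTiter-Glo luminescence, normalized to DMSO, with IC50 from a 4-parameter logistic fit.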

[2] = test system: MIA PaCa-2 (human pancreatic carcinoma) cells; experiment: Cell Viability Assay (CellTiter-Glo), MIA PaCa-2; assay type: cell-based
Procedure: Serially-diluted compound or DMSO was added to the cells, and plates were incubated at 37° C., 5% CO2 for 72 h. Cell viability was measured using a CellTiter-Glo® Luminescent Cell Viability Assay kit (Promega) according to the manufacturer's protocol. The luminescence signal of treated samples was normalized to DMSO control, and data were analyzed using a 4-parameter logistic model to calculate IC50 values.

[3] = Avg 2 h Coupled exchange IC50, 2 h compound pre-incubation, SOS-mediated nucleotide exchange
[4] = Avg 2 h Coupled exchange IC50, 2 h compound pre-incubation

## C=CC(=O)N1CC2(CCN(c3nc4c(c(-c5c(C)cc(F)c6[nH]ncc56)c3C#N)COC(C)(C)C4)C2)C1 [Example 13-147, 4-(7-fluoro-5-methyl-1H-indazol-4-yl)-7,7-dimethyl-2-(2-(2-propenoyl)-2,6-diazaspiro[3.4]octan-6-yl)-7,8-dihydro-5H-pyrano[4,3-b]pyridine-3-carbonitrile]
KRAS G12C; [3]
  IC50: 0.098 µM
[1]; Homo sapiens, A549, 72 h
  IC50: > 5 µM
[2]; Homo sapiens, MIA PaCa-2, 72 h
  IC50: 0.176 µM

## C=CC(=O)N1CC2(CCN(c3nc4c(OC)cccc4c(-c4c(C)ccc5[nH]ncc45)c3C#N)C2)C1 [Example 14-47, 8-methoxy-4-(5-methyl-1H-indazol-4-yl)-2-(2-(2-propenoyl)-2,6-diazaspiro[3.4]octan-6-yl)-3-quinolinecarbonitrile]
KRAS G12C; [4]
  IC50: 0.482 µM
[1]; Homo sapiens, A549, 72 h
  IC50: > 5 µM
[2]; Homo sapiens, MIA PaCa-2, 72 h
  IC50: > 5 µM

## C=CC(=O)N1CC2(CCN(c3nc4c(c(-c5ccc(F)cc5)c3C#N)CCC(c3scnc3C)=C4)C2)C1 [Example 23-30, 4-(4-fluorophenyl)-7-(4-methyl-1,3-thiazol-5-yl)-2-(2-(2-propenoyl)-2,6-diazaspiro[3.4]octan-6-yl)-5,6-dihydro-3-quinolinecarbonitrile]
KRAS G12C; [4]
  IC50: 0.132 µM
[1]; Homo sapiens, A549, 72 h
  IC50: 8.39 µM
[2]; Homo sapiens, MIA PaCa-2, 72 h
  IC50: 1.95 µM

## C=CC(=O)N1CC2(CCN(c3nc4cc(-c5nccn5C)ccc4c(-c4ccccc4Cl)c3C#N)C2)C1 [Example 15-7, 4-(2-chlorophenyl)-7-(1-methyl-1H-imidazol-2-yl)-2-(2-(2-propenoyl)-2,6-diazaspiro[3.4]octan-6-yl)-3-quinolinecarbonitrile]
KRAS G12C; [4]
  IC50: 0.115 µM
[1]; Homo sapiens, A549, 72 h
  IC50: 4.14 µM
[2]; Homo sapiens, MIA PaCa-2, 72 h
  IC50: 0.966 µM

## C=CC(=O)N1CC2(CCN(c3nc4cc(-c5scnc5C)cnc4c(-c4ccccc4Cl)c3C#N)C2)C1 (single isomer, unassigned) [Example 20-8, (M)-4-(2-chlorophenyl)-7-(4-methyl-1,3-thiazol-5-yl)-2-(2-(2-propenoyl)-2,6-diazaspiro[3.4]octan-6-yl)-1,5-naphthyridine-3-carbonitrile]
KRAS G12C; [4]
  IC50: 0.139 µM
[1]; Homo sapiens, A549, 72 h
  IC50: > 5 µM
[2]; 72 h
  IC50: 0.974 µM

## C=CC(=O)N1CC2(CCN(c3nc4cc(C5CC5)ccc4c(-c4c(C)ccc5[nH]ncc45)c3C#N)C2)C1 [Example 14-19, 7-cyclopropyl-4-(5-methyl-1H-indazol-4-yl)-2-(2-(2-propenoyl)-2,6-diazaspiro[3.4]octan-6-yl)-3-quinolinecarbonitrile]
KRAS G12C; [4]
  IC50: 0.13 µM
[1]; Homo sapiens, A549, 72 h
  IC50: > 5 µM
[2]; Homo sapiens, MIA PaCa-2, 72 h
  IC50: 1.69 µM

## C=CC(=O)N1CC2(CCN(c3nc4c(c(-c5ccccc5Cl)c3C#N)CCC(c3scnc3C)=C4)C2)C1 (single isomer, unassigned) [Example 23-42, (P)-4-(2-chlorophenyl)-7-(4-methyl-1,3-thiazol-5-yl)-2-(2-(2-propenoyl)-2,6-diazaspiro[3.4]octan-6-yl)-5,6-dihydro-3-quinolinecarbonitrile]
KRAS G12C; [4]
  IC50: 0.066 µM
[1]; 72 h
  IC50: > 5 µM
[2]; 72 h
  IC50: 0.561 µM

## C=CC(=O)N1CC2(CCN(c3nc4c(c(-c5c(C)ccc6cnn(C)c56)c3C#N)CCC(C)(C)C4)C2)C1 (single isomer, unassigned) [Example 13-150, 4-(1,6-dimethyl-1H-indazol-7-yl)-7,7-dimethyl-2-(2-(2-propenoyl)-2,6-diazaspiro[3.4]octan-6-yl)-5,6,7,8-tetrahydro-3-quinolinecarbonitrile]
KRAS G12C; [3]
  IC50: 2.9 µM
[1]; 72 h
  IC50: 6.73 µM
[2]; 72 h
  IC50: 4.02 µM

## C=CC(=O)N1CC2(CCN(c3nc4ccccc4c(-c4cccc5sc(N)nc45)c3C#N)C2)C1 [Example 2-3, 4-(2-amino-1,3-benzothiazol-4-yl)-2-(2-(2-propenoyl)-2,6-diazaspiro[3.4]octan-6-yl)-3-quinolinecarbonitrile]
KRAS G12C; [3]
  IC50: 0.537 µM
[1]; Homo sapiens, A549, 72 h
  IC50: 3.12 µM
[2]; Homo sapiens, MIA PaCa-2, 72 h
  IC50: 0.693 µM

## C=CC(=O)N1CC2(CCN(c3nc4c(c(-c5ccc(F)cc5F)c3C#N)COC(c3scnc3C)C4)C2)C1 [Example 23-17, (7R)-4-(2,4-difluorophenyl)-7-(4-methyl-1,3-thiazol-5-yl)-2-(2-(2-propenoyl)-2,6-diazaspiro[3.4]octan-6-yl)-7,8-dihydro-5H-pyrano[4,3-b]pyridine-3-carbonitrile (7S)-4-(2,4-difluorophenyl)-7-(4-methyl-1,3-thiazol-5-yl)-2-(2-(2-propenoyl)-2,6-diazaspiro[3.4]octan-6-yl)-7,8-dihydro-5H-pyrano[4,3-b]pyridine-3-carbonitrile]
KRAS G12C; [4]
  IC50: 0.098 µM
[1]; Homo sapiens, A549, 72 h
  IC50: > 5 µM
[2]; Homo sapiens, MIA PaCa-2, 72 h
  IC50: 0.707 µM

## 7,7-dimethyl-4-(5-methyl-1H-indazol-4-yl)-2-(2-((^2H3)-2-propenoyl)-2,6-diazaspiro[3.4]octan-6-yl)-5,6,7,8-tetrahydro-3-quinolinecarbonitrile [Example 13-1]
KRAS G12C; read-out: Avg 2 h Coupled exchange IC50, 2 h compound pre-incubation, SOS-mediated nucleotide exchange
  IC50: 0.036 µM
[1]; 72 h
  IC50: 4.89 µM
[2]; 72 h
  IC50: 0.065 µM

## C=CC(=O)N1CC2(CCN(c3nc4c(c(-c5cc(O)cc6ncccc56)c3C#N)C[C@H]3C[C@@H]4C3(C)C)C2)C1 (single isomer, unassigned) [Example 2-46]
KRAS G12C; [3]
  IC50: 0.006 µM
[1]; Homo sapiens, A549, 72 h
  IC50: > 5 µM
[2]; Homo sapiens, MIA PaCa-2, 72 h
  IC50: 0.135 µM

## C=CC(=O)N1CC2(CCN(c3nc4c(c(-c5ccccc5C)c3C#N)CCC(c3scnc3C)=C4)C2)C1 [Example 23-11, 4-(2-methylphenyl)-7-(4-methyl-1,3-thiazol-5-yl)-2-(2-(2-propenoyl)-2,6-diazaspiro[3.4]octan-6-yl)-5,6-dihydro-3-quinolinecarbonitrile]
KRAS G12C; [4]
  IC50: 0.053 µM
[1]; Homo sapiens, A549, 72 h
  IC50: > 5 µM
[2]; Homo sapiens, MIA PaCa-2, 72 h
  IC50: 0.637 µM

## C=CC(=O)N1CC2(CCN(c3nc4c(c(-c5ccc(F)cc5Cl)c3C#N)CCC(c3scnc3C)=C4)C2)C1 (atropisomer, axis not shown; (M)) [Example 23-32, (M)-4-(2-chloro-4-fluorophenyl)-7-(4-methyl-1,3-thiazol-5-yl)-2-(2-(2-propenoyl)-2,6-diazaspiro[3.4]octan-6-yl)-5,6-dihydro-3-quinolinecarbonitrile]
KRAS G12C; [4]
  IC50: 0.282 µM
[1]; 72 h
  IC50: 5.5 µM
[2]; 72 h
  IC50: 1.95 µM

## C=CC(=O)N1CC2(CCN(c3nc4c(c(-c5c(C)ccc6cnn(C)c56)c3C#N)[C@H]3C[C@@H](C4)C3)C2)C1 (single isomer, unassigned) [Example 13-133]
KRAS G12C; [3]
  IC50: 0.064 µM
[1]; Homo sapiens, A549, 72 h
  IC50: > 5 µM
[2]; Homo sapiens, MIA PaCa-2, 72 h
  IC50: 0.2 µM

## C=CC(=O)N1CC2(CCN(c3nc4c(c(-c5ccccc5F)c3C#N)CCN(C[C@@H]3CCC(=O)N3)C4)C2)C1 [Example 21-33, 4-(2-fluorophenyl)-7-(((2S)-5-oxo-2-pyrrolidinyl)methyl)-2-(2-(2-propenoyl)-2,6-diazaspiro[3.4]octan-6-yl)-5,6,7,8-tetrahydro-1,7-naphthyridine-3-carbonitrile]
KRAS G12C; [4]
  IC50: 0.957 µM
[1]; Homo sapiens, A549, 72 h
  IC50: 16.1 µM
[2]; Homo sapiens, MIA PaCa-2, 72 h
  IC50: 5.52 µM

## C=CC(=O)N1CC2(CCN(c3cc4c(c(-c5c(C(F)(F)F)ccc6[nH]ncc56)c3Cl)OCCC4)C2)C1 [Example 2-103, 1-(6-(7-chloro-8-(5-(trifluoromethyl)-1H-indazol-4-yl)-3,4-dihydro-2H-chromen-6-yl)-2,6-diazaspiro[3.4]octan-2-yl)-2-propen-1-one]
KRAS G12C; [3]
  IC50: 0.294 µM
[1]; Homo sapiens, A549, 72 h
  IC50: > 5 µM
[2]; Homo sapiens, MIA PaCa-2, 72 h
  IC50: 0.118 µM

## C=CC(=O)N1CC2(CCN(c3nc4cc(-c5cncnc5)ccc4c(-c4ccc(F)cc4F)c3C#N)C2)C1 [Example 20-12, 4-(2,4-difluorophenyl)-2-(2-(2-propenoyl)-2,6-diazaspiro[3.4]octan-6-yl)-7-(5-pyrimidinyl)-3-quinolinecarbonitrile]
KRAS G12C; [4]
  IC50: 0.245 µM
[1]; Homo sapiens, A549, 72 h
  IC50: > 25 µM
[2]; Homo sapiens, MIA PaCa-2, 72 h
  IC50: 2.06 µM
